From patent US5230998A, “Method for the prescreening of drugs targeted to the V3 hypervariable loop of the HIV-1 envelope glycoprotein gp 120” (priority 1991, dated 1993)
Entries after “also recorded” stand apart in the source; their conditions may differ.

Columns and labels:
[1] = biological target: T1, HIV-1 IIIB glycoprotein gp120 V3 hypervariable loop (Human immunodeficiency virus type 1 BH10, UniProt P03375); experiment: Inhibition of the reaction between HIV-1 IIIB gp120 and three distinct antibodies reacting with the V3 hypervariable loop (FIGS. 8-11); assay type: binding; conditions: 60 μg/ml, metal complexes versus uncomplexed
T1 construct: b180 also mentions the V3 loop peptide
Method: (§1) FIG. 8 is a bar graph depicting the inhibitory effect of chlorine6 (60 μg/ml) and metal chelates thereof on the reaction between HIV-1 IIIB glycoprotein gp120 and three distinct antibodies reacting with the V3 hypervariable loop of this glycoprotein. The antisera used were rabbit antiserum to a synthetic peptide corresponding to the V3 hypervariable loop of HIV-1 clone BH10, serum of a chimpanzee immunized with V3 hypervariable loop peptides of distinct HIV-1 isolates and monoclonal antibodies (McAb NEA 9305) raised against residues (315-329) of the V3 hypervariable loop of HIV-1 BH10 (Neurath et al (1990), Molec. Immunol., 27, 539-549).
FIG. 9 is a bar graph depicting the inhibitory effect of deuteroporphyrin IX,2-vinyl,4-hydroxymethyl (60 μg/ml) and metal chelates thereof on the reaction between HIV-1 IIIB glycoprotein gp120 and three distinct antibodies reacting with the V3 hypervarible loop of this glycoprotein. The antisera used were rabbit antiserum to a synthetic peptide corresponding to the V3 hypervariable loop of HIV-1 clone BH10, serum of a chimpanzee immunized with V3 hypervariable loop peptides of distinct HIV-1 isolates and monoclonal antibodies (McAb NEA 9305) raised against a synthetic peptide corresponding to residues (315-329) of the V3 hypervariable loop of HIV-1 BH10 (Neurath et al (1990), Molec. Immunol 27, 539-549).
as §1, with “FIG. 10” for “FIG. 8”, “of meso-tetra (4-carboxyphenyl)porphine” for “of chlorine6”, “against a synthetic peptide corresponding to” for “against”, “HIV-1 BH10.” for “HIV-1 BH10”
as §1, with “FIG. 11” for “FIG. 8”, “of uroporphyrin III” for “of chlorine6”, “against a synthetic peptide corresponding to” for “against”, “et al,” for “et al”, “Molec. lmmunol.,” for “Molec. Immunol.,”, “27, 539-549)” for “27, 539-549).”
Monoclonal antibodies (McAbs) recognizing the V3 hypervariable loop of HIV-1 BH 10 (McAb 9305 from DuPont, Wilmington, Del.) and an antiserum from a chimpanzee immunized with a mixture of V3 hypervariable loop peptides from 21 distinct HIV1 isolates (Girard, M., Kieny, M-P., Pinter, A., Barre-Sinoussi, F., Nara, P., Kolbe, H., Kusumi, K., Chaput, A., Reinhart, T., Muchmore, E, Ronco, J., Kaczorek, M., Gomard, E, Gluckman, JC., Fultz, P. N. (1991), "Immunization of Chimpanzees Confers Protection Against Challenge with Human Immunodeficiency Virus", Proc. Natl. Acad. Sci. USA, 88, 542-546) were also used for studies on the inhibitory affect of ATA on the reaction between these antibodies and gp120, using ELISA tests. These tests were carried out similarly as RIA, except that sodium merthiolate (1 mg/ml) was added to the buffers instead of NaN3, and goat antimouse IgG antibodies (Boehringer Mannheim Biochemicals, Indianapolis, Ind.) and goat anti-human IgG antibodies (Sigma, St. Louis, Mo.), respectively, each linked to horseradish peroxidase were used as second antibodies at final dilutions of 1:1,000 in phosphate-buffered saline (PBS) containing 10% goat serum and 0.1% Tween 20. […]

peptide (492-518) = peptide (492-518) (Human immunodeficiency virus type 1 BH10, UniProt P03375); experiment: Attachment of ATA determined by anti-ATA antibodies (double antibody RIA); assay type: binding, HIV-1 BH 10; conditions: FIG. 1C
Method: (§2) Antibodies to ATA were detected by double antibody RIA using wells coated with an ATA-ovalbumin conjugate. This conjugate was prepared in the same way as described for the ATA-BSA conjugate. Dilution endpoints of anti-ATA antibodies, determined as described by Ritchie, D. G., Nickerson, J. M., and Fuller, G. M. (1983), "Two Simple Programs for the Analysis of Data from Enzyme-linked Immunosorbent Assays (ELISA) on a Programmable Desk-top Calculator," Methods in Enzymology, 92, 577-588) of the two antisera were: 1:2,700 and 1:150,000, respectively. The second antiserum was used for subsequent RIA tests.
(§3) ATA was also added to a control peptide, (518-542), and to wells coated with gelatin only. After incubation for 4 hours at 20° C., excess ATA was removed, the wells were washed with TS and attached ATA was determined by double-antibody RIA using serial dilutions of the anti-ATA antiserum. Similar tests were carried out with serum from the same rabbit before immunization with the ATA-BSA conjugate; the corresponding results (100-450 cpm) were subtracted from cpm corresponding to RIA results obtained with the anti-ATA antiserum. For additional assays aimed at determining the binding of ATA to synthetic peptides from gp120 and gp41 of HIV-1 BH 10 and to V3 hypervariable loop peptides from 20 additional HIV-1 isolates, anti-ATA antiserum was used at a final dilution of 1:800.

[2] = biological target: T2, V3 hypervariable loop peptide (303-338) (Human immunodeficiency virus type 1 BH10, UniProt P03375); experiment: as above; assay type: binding, HIV-1 BH 10; conditions: FIG. 1C, FIG. 2
T2 construct: cut from Env gp160
Method: as §2, §3

gp120 = biological target: T3, gp120 (Human immunodeficiency virus type 1 BH10, UniProt P03375); experiment: as above; assay type: binding, HIV-1 BH 10; conditions: FIG. 2; listed as ATA
T3 construct: cut from Env gp160
Method: as §2, §3

[3] = biological target: gp120 of the same virus subtype expressed in E. coli (HIV-1 M:B_ARV2/SF2, UniProt P03378); experiment: Interaction of ATA with gp120 (non-glycosylated); assay type: binding, HIV-1 SF2; conditions: data not shown
Sequence of gp120 of the same virus subtype expressed in E. coli (P03378 32-509): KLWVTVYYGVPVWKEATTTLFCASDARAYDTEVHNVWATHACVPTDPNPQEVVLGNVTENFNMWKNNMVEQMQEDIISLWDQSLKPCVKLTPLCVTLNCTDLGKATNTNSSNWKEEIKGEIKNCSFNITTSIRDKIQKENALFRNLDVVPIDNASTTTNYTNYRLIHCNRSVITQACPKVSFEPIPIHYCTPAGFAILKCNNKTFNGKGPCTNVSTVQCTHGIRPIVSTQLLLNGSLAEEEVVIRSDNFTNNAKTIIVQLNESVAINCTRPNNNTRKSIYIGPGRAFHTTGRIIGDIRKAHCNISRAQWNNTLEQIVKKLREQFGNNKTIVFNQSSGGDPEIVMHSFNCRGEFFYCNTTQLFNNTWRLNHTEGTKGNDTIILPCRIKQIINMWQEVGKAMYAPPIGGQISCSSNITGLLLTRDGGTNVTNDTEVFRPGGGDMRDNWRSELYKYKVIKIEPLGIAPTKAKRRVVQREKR

HIV-1 = conditions: literature; listed as ATA; cited from earlier work

Compound | inhibitory activity on the interaction between the V3 hypervariable loop of HIV-1-IIIB and antisera [1] | binding of ATA to peptide (anti-ATA antibodies) (peptide (492-518)) | binding of ATA to peptide (anti-ATA antibodies) [2] | binding of ATA to gp120 (anti-ATA antibodies) (gp120) | interaction of ATA with gp120 [3] | inhibition of HIV-1 replication / antiviral activity (HIV-1)
C=Cc1c(C)c2cc3nc(c(CC(=O)O)c4[nH]c(cc5nc(cc1[nH]2)C(C)=C5CC)c(C)c4C(=O)O)[C@@H](CCC(=O)O)[C@@H]3C [substance #149, chlorine e6] | considerable inhibitory activity | – | – | – | – | –
O=C(O)C1=CC(=C(c2ccc(O)c(C(=O)O)c2)c2ccc(O)c(C(=O)O)c2)C=CC1=O [substance #122, aurintricarboxylic acid] | – | bound to the peptide (492-518) | most efficient binder of ATA | reacted with gp120; also recorded: remained bound to gp120 after removal of the excess of the compound | not with gp120 of the same virus subtype expressed in E. coli | inhibited the replication of HIV-1 in vitro; also recorded: inhibit the cytopathogenicity and replication of the human immunodeficiency virus type 1
